Common to all, as to format: cell-based
For assay [1], the target named is kinases in BCWM.1 cells (Homo sapiens, UniProt Q13523). Briefly: KINATIV assay of compounds I-3 and I-9, lysate directly labeled with ATP-biotin probe (no GF). The settings on record: PRP4; Lys2; 1 μM, 90 min; no GF. As to the method: (§1) The cells were harvested and lysed. […] Bound kinases were identified and quantitated by ACTIVX as described in Patricelli et al., Biochemistry, 2007, 46(2): 350-358. The compounds were tested in duplicates against duplicate or quadruplicate control samples.

The target of assay [2] is kinases in BCWM.1 cells (Homo sapiens, UniProt P51957). The description is as above. The settings on record: NEK4; Lys2; 1 μM, 90 min; no GF. As to the method: as §1
Assay [3] deals with kinases in BCWM.1 cells (Homo sapiens, UniProt P48426). The assay is described as above. The settings on record: PIP4K2A; ATP; 1 μM, 90 min; no GF. Here is the method:
as §1

Assay [4] deals with kinases in BCWM.1 cells (Homo sapiens, UniProt P19525). The assay is described as above. The settings on record: PKR; Lys2; 1 μM, 90 min; no GF. Here is the method:
as §1

The target in assay [5] is kinases in BCWM.1 cells (Homo sapiens, UniProt O43318). Described as above. The settings on record: TAK1; Lys2; 1 μM, 90 min; no GF. As to the method:
as §1

Assay [6] addresses kinases in BCWM.1 cells (Homo sapiens, UniProt Q9NRH2). Described as above. The settings on record: SNRK; Lys2; 1 μM, 90 min; no GF. As to the method: as §1
The target in assay [7] is kinases in BCWM.1 cells (Homo sapiens, UniProt Q13233). The settings on record: MAP3K1; Lys2; 1 μM; GF. Here is the method: as §1
Assay [8] concerns the target kinases in BCWM.1 cells (Homo sapiens, UniProt Q9Y616). The settings on record: IRAK3; Lys1; 1 μM; GF. As to the method: as §1
For assay [9], the target named is kinases in BCWM.1 cells (Homo sapiens, UniProt P45985). The settings on record: MAP2K4; Lys2; 1 μM; GF. Here is the method: as §1
The target of assay [10] is kinases in BCWM.1 cells (Homo sapiens, UniProt O94806). The settings on record: PKD3; Lys1; 1 μM, 90 min; GF. As to the method: as §1
Assay [11] deals with kinases in BCWM.1 cells (Homo sapiens, UniProt P09769). The settings on record: FGR; Activation Loop; 1 μM; GF. As to the method: as §1
For assay [12], the target named is kinases in BCWM.1 cells (Homo sapiens, UniProt Q16513). The settings on record: PKN2; Lys2; 1 μM, 90 min; GF. As to the method: as §1
The target of assay [13] is kinases in BCWM.1 cells (Homo sapiens, UniProt Q14164). The settings on record: IKKe; Lys1; 1 μM; GF. Here is the method:
as §1

Assay [14] concerns the target kinases in BCWM.1 cells (Homo sapiens, UniProt P54762). The settings on record: EphB1; Activation Loop; 1 μM; GF. As to the method: as §1
For assay [15], the target named is kinases in BCWM.1 cells (Homo sapiens, UniProt Q13164). The settings on record: Erk5; Lys2; 1 μM; GF. As to the method: as §1
Assay [16] deals with kinases in BCWM.1 cells (Homo sapiens, UniProt O75676). The settings on record: MSK2 domain1; Lys2; 1 μM; GF. Here is the method: as §1
For assay [17], the target named is kinases in BCWM.1 cells (Homo sapiens, UniProt P31749). The settings on record: AKT1; ATP Loop; 1 μM; GF. As to the method: as §1
Assay [18] addresses kinases in BCWM.1 cells (Homo sapiens, UniProt P49760). The settings on record: CLK2; Lys2; 1 μM; GF. As to the method: as §1
Assay [19] has as its target kinases in BCWM.1 cells (Homo sapiens, UniProt Q9Y2K2). The settings on record: QSK; Lys2; 1 μM, 90 min; GF. As to the method:
as §1

In assay [20] the target is kinases in BCWM.1 cells (Homo sapiens, UniProt O95835). The settings on record: LATS1; Lys1; 1 μM; GF. Here is the method: as §1
Assay [21] concerns the target kinases in BCWM.1 cells (Homo sapiens, UniProt Q16584). The settings on record: MLK3; Lys2; 1 μM; GF. As to the method:
as §1

For assay [22], the target named is kinases in BCWM.1 cells (Homo sapiens, UniProt Q9Y4K4). The settings on record: KHS1; Lys1; 1 μM; GF. Here is the method:
as §1

Assay [23] addresses kinases in BCWM.1 cells (Homo sapiens, UniProt Q13535). The settings on record: ATR; ATP; 1 μM; GF. As to the method: as §1
For assay [24], the target named is kinases in BCWM.1 cells (Homo sapiens, UniProt P41240). The settings on record: CSK; Activation Loop; 1 μM; GF. Here is the method: as §1
Assay [25] addresses kinases in BCWM.1 cells (Homo sapiens, UniProt P07948). The settings on record: LYN; Lys1; 1 μM; GF. As to the method: as §1
Assay [26] addresses kinases in BCWM.1 cells (Homo sapiens, UniProt P49761). The settings on record: CLK3; ATP Loop; 1 μM; GF. As to the method:
as §1

Assay [27] deals with kinases in BCWM.1 cells (Homo sapiens, UniProt Q86UX6). The settings on record: YANK3; Lys2; 1 μM, 90 min; GF. Here is the method: as §1
The target in assay [28] is kinases in BCWM.1 cells (Homo sapiens, UniProt Q00535). The settings on record: CDK5; Lys2; 1 μM; GF. Here is the method: as §1
Assay [29] addresses kinases in BCWM.1 cells (Homo sapiens, UniProt Q9C0K7). The settings on record: STLK6; Lys1; 1 μM, 90 min; GF. Here is the method: as §1
For assay [30], the target named is kinases in BCWM.1 cells (Homo sapiens, UniProt P50613). The settings on record: CDK7; Lys2; 1 μM; GF. As to the method: as §1

SMILES strings stand for the structures. Where “and” joins values, the source holds several entries; their conditions need not be identical. Equal values may be shown once.

kinases in BCWM.1 cells (Homo sapiens, UniProt P50613), sequence (P50613 2-346 limits assumed): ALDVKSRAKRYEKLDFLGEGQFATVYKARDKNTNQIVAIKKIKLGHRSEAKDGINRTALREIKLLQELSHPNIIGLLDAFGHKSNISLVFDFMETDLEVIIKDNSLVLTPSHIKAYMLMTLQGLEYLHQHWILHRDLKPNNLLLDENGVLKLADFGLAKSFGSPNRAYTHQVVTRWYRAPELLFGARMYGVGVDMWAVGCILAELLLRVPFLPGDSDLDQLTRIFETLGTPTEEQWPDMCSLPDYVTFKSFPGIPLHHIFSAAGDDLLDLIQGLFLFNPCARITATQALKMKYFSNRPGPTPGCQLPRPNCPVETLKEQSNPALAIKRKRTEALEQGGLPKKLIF
kinases in BCWM.1 cells (Homo sapiens, UniProt Q13164), sequence (Q13164 2-816 limits assumed): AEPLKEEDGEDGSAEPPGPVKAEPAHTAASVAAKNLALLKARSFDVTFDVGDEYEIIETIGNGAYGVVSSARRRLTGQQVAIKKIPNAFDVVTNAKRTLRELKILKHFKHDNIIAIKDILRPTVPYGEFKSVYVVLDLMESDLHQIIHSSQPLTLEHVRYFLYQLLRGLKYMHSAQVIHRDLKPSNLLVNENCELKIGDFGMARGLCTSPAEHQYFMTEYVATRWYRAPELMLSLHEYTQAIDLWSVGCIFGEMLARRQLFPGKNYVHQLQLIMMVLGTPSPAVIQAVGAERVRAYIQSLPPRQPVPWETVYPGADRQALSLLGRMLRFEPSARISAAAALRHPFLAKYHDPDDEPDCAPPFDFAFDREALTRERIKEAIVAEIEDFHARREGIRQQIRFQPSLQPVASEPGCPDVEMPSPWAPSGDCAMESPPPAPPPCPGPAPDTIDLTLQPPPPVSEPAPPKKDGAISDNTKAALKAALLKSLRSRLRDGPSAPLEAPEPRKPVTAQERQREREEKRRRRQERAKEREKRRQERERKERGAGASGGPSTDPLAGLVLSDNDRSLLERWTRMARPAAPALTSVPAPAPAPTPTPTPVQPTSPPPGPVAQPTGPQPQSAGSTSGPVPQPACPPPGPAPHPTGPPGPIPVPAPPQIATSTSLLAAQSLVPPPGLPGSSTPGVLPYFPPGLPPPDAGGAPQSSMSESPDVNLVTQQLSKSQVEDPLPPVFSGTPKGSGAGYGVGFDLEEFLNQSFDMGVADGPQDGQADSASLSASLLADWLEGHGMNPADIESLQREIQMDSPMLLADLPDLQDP
kinases in BCWM.1 cells (Homo sapiens, UniProt P09769), sequence (P09769 2-529 limits assumed): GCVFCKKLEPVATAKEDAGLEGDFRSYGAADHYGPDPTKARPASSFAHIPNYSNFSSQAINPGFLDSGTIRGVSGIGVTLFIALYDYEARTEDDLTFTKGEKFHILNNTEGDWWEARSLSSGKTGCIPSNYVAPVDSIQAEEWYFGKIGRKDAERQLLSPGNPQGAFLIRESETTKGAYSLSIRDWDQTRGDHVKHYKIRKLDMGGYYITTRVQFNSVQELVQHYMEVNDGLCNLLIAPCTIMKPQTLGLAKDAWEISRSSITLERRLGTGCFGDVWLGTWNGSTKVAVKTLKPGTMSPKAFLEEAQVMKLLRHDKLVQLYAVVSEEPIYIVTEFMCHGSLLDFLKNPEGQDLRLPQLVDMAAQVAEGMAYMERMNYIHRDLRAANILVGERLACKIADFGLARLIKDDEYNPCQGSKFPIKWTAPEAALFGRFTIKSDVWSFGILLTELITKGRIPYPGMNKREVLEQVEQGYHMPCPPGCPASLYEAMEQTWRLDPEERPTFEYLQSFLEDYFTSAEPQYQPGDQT
kinases in BCWM.1 cells (Homo sapiens, UniProt Q13233), sequence (Q13233 2-1512 limits assumed): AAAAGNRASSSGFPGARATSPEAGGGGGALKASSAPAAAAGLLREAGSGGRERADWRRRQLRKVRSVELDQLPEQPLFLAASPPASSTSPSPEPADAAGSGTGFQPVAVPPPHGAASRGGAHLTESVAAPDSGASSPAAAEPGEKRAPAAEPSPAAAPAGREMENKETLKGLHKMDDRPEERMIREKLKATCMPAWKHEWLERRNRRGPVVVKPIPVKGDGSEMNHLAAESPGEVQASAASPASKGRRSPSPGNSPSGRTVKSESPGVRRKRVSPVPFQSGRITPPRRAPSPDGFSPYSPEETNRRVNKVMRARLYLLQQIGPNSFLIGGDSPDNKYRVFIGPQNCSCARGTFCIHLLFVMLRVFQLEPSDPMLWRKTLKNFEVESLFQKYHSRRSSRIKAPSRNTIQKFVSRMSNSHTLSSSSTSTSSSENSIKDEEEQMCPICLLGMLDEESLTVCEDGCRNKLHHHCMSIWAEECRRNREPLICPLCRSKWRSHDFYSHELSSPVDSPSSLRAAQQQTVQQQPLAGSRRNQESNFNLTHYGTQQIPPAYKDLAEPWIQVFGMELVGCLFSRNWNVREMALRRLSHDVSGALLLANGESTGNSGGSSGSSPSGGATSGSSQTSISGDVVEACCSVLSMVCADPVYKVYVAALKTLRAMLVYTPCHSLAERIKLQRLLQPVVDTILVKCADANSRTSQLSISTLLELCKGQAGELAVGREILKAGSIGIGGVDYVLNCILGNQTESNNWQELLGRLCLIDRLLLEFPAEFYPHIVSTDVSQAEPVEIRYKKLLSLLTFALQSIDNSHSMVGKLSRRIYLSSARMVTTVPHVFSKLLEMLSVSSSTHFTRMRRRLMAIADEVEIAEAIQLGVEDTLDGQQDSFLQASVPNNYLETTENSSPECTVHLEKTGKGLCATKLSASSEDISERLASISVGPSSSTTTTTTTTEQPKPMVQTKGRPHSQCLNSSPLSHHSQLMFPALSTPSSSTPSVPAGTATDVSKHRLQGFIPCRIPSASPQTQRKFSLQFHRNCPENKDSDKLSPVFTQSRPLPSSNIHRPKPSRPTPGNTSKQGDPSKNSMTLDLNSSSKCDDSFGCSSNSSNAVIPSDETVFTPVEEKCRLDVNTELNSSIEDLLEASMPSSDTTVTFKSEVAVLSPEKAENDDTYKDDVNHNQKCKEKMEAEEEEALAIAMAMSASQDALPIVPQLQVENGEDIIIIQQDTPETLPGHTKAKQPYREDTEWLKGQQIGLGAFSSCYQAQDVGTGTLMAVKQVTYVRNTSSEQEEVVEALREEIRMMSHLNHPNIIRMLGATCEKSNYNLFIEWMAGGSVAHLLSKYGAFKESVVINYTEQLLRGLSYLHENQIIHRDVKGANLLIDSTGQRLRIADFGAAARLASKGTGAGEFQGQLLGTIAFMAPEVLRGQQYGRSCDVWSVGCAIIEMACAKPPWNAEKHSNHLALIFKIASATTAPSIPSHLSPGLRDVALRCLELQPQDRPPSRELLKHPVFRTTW
kinases in BCWM.1 cells (Homo sapiens, UniProt P07948), sequence (P07948 2-512 limits assumed): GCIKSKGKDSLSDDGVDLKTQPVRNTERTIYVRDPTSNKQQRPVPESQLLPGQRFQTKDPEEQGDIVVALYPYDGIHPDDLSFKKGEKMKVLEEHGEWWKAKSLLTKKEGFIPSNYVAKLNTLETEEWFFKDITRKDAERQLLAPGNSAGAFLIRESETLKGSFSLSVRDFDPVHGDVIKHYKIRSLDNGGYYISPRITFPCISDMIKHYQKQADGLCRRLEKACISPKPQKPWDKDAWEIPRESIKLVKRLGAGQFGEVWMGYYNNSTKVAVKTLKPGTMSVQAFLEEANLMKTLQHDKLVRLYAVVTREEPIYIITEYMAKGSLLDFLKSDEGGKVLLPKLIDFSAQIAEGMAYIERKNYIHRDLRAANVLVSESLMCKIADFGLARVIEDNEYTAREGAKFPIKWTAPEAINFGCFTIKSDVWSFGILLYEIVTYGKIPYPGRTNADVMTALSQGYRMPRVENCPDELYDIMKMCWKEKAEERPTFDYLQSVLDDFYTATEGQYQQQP
kinases in BCWM.1 cells (Homo sapiens, UniProt P19525), sequence (P19525 2-551 limits assumed): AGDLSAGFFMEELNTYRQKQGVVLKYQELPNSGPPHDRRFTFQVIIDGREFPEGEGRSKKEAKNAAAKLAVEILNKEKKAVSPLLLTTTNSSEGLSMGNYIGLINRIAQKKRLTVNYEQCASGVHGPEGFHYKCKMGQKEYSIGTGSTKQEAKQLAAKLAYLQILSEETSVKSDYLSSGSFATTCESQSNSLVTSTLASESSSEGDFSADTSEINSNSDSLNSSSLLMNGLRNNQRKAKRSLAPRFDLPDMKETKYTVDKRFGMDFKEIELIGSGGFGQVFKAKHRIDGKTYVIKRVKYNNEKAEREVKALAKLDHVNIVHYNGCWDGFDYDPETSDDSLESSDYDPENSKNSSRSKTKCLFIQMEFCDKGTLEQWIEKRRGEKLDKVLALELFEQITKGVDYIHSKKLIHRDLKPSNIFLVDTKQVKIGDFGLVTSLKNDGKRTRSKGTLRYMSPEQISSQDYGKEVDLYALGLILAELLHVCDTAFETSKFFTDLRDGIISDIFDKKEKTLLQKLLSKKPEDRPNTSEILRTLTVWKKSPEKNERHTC
kinases in BCWM.1 cells (Homo sapiens, UniProt P48426), sequence (P48426 2-406 limits assumed): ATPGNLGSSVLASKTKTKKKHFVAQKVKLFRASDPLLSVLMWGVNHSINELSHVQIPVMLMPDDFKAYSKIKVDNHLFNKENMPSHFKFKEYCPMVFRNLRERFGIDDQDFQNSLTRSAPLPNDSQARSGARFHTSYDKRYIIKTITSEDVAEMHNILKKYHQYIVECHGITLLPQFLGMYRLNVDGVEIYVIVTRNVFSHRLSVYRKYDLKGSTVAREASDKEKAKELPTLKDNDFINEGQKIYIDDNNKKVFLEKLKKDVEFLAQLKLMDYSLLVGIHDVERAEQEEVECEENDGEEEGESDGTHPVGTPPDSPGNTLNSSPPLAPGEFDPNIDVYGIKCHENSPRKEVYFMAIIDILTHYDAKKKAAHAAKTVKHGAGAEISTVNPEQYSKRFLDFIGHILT

As to `C=CC(=O)N1CC[C@H](Nc2nccc(Nc3ncc(C(=O)Nc4c(C)cccc4C)s3)n2)C1` [Example I-3], the “% change of MS signal compared to control sample” value (shortened to “% change of MS signal”) is 5.9% at kinases in BCWM.1 cells [1]; 10.1% at kinases in BCWM.1 cells [2]; −4.9% at kinases in BCWM.1 cells [3]; −3.6% on kinases in BCWM.1 cells [4]; 2.3% on kinases in BCWM.1 cells [5]; 46.4% at kinases in BCWM.1 cells [6].
Take `CCC(=O)N1CC[C@H](Nc2nccc(Nc3ncc(C(=O)Nc4c(C)cccc4C)s3)n2)C1` [Example I-9]: the “% change of MS signal” value was 11.1% and 9.8% on kinases in BCWM.1 cells [7]; 7.2% and −1.4% at kinases in BCWM.1 cells [8]; −5.4% and −2.1% on kinases in BCWM.1 cells [9]; −9.2% on kinases in BCWM.1 cells [10]; 84.7% and 72.1% at kinases in BCWM.1 cells [11]; 13.6% on kinases in BCWM.1 cells [12]. Besides, the “% change of MS signal” value on kinases in BCWM.1 cells [13] was −12.6% and −6.1%; at kinases in BCWM.1 cells [14], 53.3% and 78.9%; on kinases in BCWM.1 cells [15] it was −1.8% and 1.1%; on kinases in BCWM.1 cells [16] it was −27% and −18.7%; at kinases in BCWM.1 cells [17], −25.1% and −16.8%; at kinases in BCWM.1 cells [18], −19.3% and −10.6%. Besides, the “% change of MS signal” value at kinases in BCWM.1 cells [19] is 2.5%; on kinases in BCWM.1 cells [20], −2.8% and 5.4%; at kinases in BCWM.1 cells [21], 24.1%; on kinases in BCWM.1 cells [22], −7.5% and −8.7%; at kinases in BCWM.1 cells [23], 28.1% and 16.5%; at kinases in BCWM.1 cells [24] it was −6% and 1.5%. For the same compound, the “% change of MS signal” value is 85.2% and 94% at kinases in BCWM.1 cells [25]; −19% and −10.3% at kinases in BCWM.1 cells [26]; −13.2% at kinases in BCWM.1 cells [27]; −1.1% and 7.7% at kinases in BCWM.1 cells [28]; 4.8% at kinases in BCWM.1 cells [29]; 1.3% and 5.1% on kinases in BCWM.1 cells [30]. The “% change of MS signal” value on kinases in BCWM.1 cells [1] is on record as −24.8%; at kinases in BCWM.1 cells [2], −13.1%; on kinases in BCWM.1 cells [3], −10.5%; at kinases in BCWM.1 cells [4] it was −8%; on kinases in BCWM.1 cells [5], −1.4%; on kinases in BCWM.1 cells [6], 28.6%.

Values taken from patent US10844077B2, “Thiazolyl-containing compounds for treating proliferative diseases” (Dana-Farber Cancer Institute, Inc., priority 2014, dated 2020).
